The target in the assay is T1, p38 alpha (Homo sapiens, UniProt Q16539).
T1 construct: purchased Invitrogen PV3304
Description: P38 alpha enzyme inhibition assay (Alphascreen kinase activity assay). In kind it is biochemical. The settings on record: 100 pM p38 alpha, 2 hours preincubation at 25° C., 250 μM ATP, ATF-2 fusion protein; read-out: p38α inhibition. On the procedure: P38 Alpha Enzyme Inhibition Assay
The inhibitory activity of compounds was determined using an Alphascreen® (Perkin Elmer) based kinase activity assay. Kinase reactions consisted of 25 mM HEPES pH 7.5, 10 mM MgCl2, 100 μM Na3VO4, 2 mM DTT, 0.05 mg/ml Tween 20, 100 pM p38 alpha (Invitrogen, PV3304), 1% DMSO and 0.3 μg/ml ATF-2 fusion protein (New England Biolabs, 9224). Compounds were incubated under these conditions for 2 hours, at 25° C., prior to the initiation of the kinase activity by the addition of the 250 μM ATP. Reaction volumes were 20 μL. After 1 hr at 25° C. reactions were stopped by the adding 10 μL of 25 mM HEPES pH 7.5 containing 62.5 mM EDTA, 0.05% Triton X-100, 10% BSA and 0.83 ng/uL anti-phospho-ATF2 antibody (Abcam, ab28812). Detection was performed by measuring luminescence following the addition of Alphascreen Donor beads (Perkin Elmer 6765300) and Protein A Alphascreen Acceptor beads (Perkin Elmer 6760137), both at a final concentration of 20 ug/ml. IC50 values were determined from concentration-response curves.

T1 sequence (Q16539 whole entry): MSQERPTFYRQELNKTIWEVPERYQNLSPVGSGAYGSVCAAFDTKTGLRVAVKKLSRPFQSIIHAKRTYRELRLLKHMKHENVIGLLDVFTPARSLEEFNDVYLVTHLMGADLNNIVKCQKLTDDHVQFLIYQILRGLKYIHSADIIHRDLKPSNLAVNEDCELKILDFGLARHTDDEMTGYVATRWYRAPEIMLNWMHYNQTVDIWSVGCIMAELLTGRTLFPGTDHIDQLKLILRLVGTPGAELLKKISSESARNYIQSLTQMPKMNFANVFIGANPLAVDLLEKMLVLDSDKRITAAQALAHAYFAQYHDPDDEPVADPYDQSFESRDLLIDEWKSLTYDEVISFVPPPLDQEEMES

For `COC(C)(C)c1nnc2ccc(O[C@@H]3CC[C@H](NC(=O)Nc4cc(C(C)(C)C)nc(C(=O)NCC(C)(C)N(C)C)n4)c4ccccc43)cn12` [Example 141, 4-(tert-butyl)-N-(2-(dimethylamino)-2-mcthylpropyl)-6-(3-((1S,4R)-4-((3-(2-methoxypropan-2-yl)-[1,2,4]triazolo[4,3-a]pyridin-6-yl)oxy)-1,2,3,4-tetrahydronaphthalen-1-yl)ureido)pyrimidine-2-carboxamide], the IC50 was in the range of 1 to 10 nM.

With `COC(C)(C)c1nnc2ccc(O[C@@H]3CC[C@H](NC(=O)Nc4cc(C(C)(C)C)nc(COCCN5CCOCC5)n4)c4ccccc43)cn12` [Example 144, 1-(6-(tert-butyl)-2-((2-morpholinoethoxy)-methyl)pyrimidin-4-yl)-3-((1S,4R)-4-((3-(2-methoxypropan-2-yl)-[1,2,4]triazolo[4,3-a]pyridin-6-yl)oxy)-1,2,3,4-tetrahydronaphthalen-1-yl)urea], the IC50 was 1 to 10 nM.

`CCC(CC)(CNC(=O)c1nc(NC(=O)N[C@H]2CC[C@@H](Oc3ccc4nnc(C(C)(C)COC)n4c3)c3ccccc32)cc(C(C)(C)C)n1)N(C)C` [Example 147, 4-(tert-butyl)-N-(2-(dimethylamino)-2-ethylbutyl)-6-(3-((1S,4R)-4-((3-(1-methoxy-2-methylpropan-2-yl)-[1,2,4]triazolo[4,3-a]pyridin-6-yl)oxy)-1,2,3,4-tetrahydronaphthalen-1-yl)ureido)pyrimidine-2-carboxamide]: the IC50 was in the range of 1 to 10 nM.

For the compound `CCN(C)C(C)(C)CNC(=O)c1nc(NC(=O)N[C@H]2CC[C@@H](Oc3ccc4nnc(C(C)(C)C)n4c3)c3ccccc32)cc(C(C)(C)C)n1` [Example 148, 4-(tert-butyl)-6-(3-((1S,4R)-4-((3-(tert-butyl)-[1,2,4]triazolo[4,3-a]pyridin-6-yl)oxy)-1,2,3,4-tetrahydronaphthalen-1-yl)ureido)-N-(2-(ethyl(methyl)amino)-2-methylpropyl)pyrimidine-2-carboxamide], the IC50 was in the range of 1 to 10 nM.

Take `COCC(C)(C)c1nnc2ccc(O[C@@H]3CC[C@H](NC(=O)Nc4cc(C(C)(C)C)nc(C(=O)NCC5(N(C)C)CCOCC5)n4)c4ccccc43)cn12` [Example 150, 4-(tert-butyl)-N-((4-(dimethylamino)-tetrahydro-2H-pyran-4-yl)methyl)-6-(3-((1S,4R)-4-((3-(1-methoxy-2-methylpropan-2-yl)-[1,2,4]triazolo[4,3-a]pyridin-6-yl)oxy)-1,2,3,4-tetrahydronaphthalen-1-yl)ureido)pyrimidine-2-carboxamide]: the IC50 was 1 to 10 nM.

In the case of `COCC(C)(C)c1nnc2ccc(O[C@@H]3CC[C@H](NC(=O)Nc4cc(C(C)(C)C)nc(C(=O)NCC5(N(C)C)CCCCC5)n4)c4ccccc43)cn12` [Example 153, 4-(tert-butyl)-N-((1-(dimethylamino)cyclohexyl)methyl)-6-(3-((1S,4R)-4-((3-(1-methoxy-2-methylpropan-2-yl)-[1,2,4]triazolo[4,3-a]pyridin-6-yl)oxy)-1,2,3,4-tetrahydronaphthalen-1-yl)ureido)pyrimidine-2-carboxamide], the IC50 lay within 1 to 10 nM.

In the case of `CCN(C)C(C)(C)CNC(=O)c1nc(NC(=O)N[C@H]2CC[C@@H](Oc3ccc4nnc(C(C)(C)OC)n4c3)c3ccccc32)cc(C(C)(C)C)n1` [Example 156, 4-(tert-butyl)-N-(2-(ethyl(methyl)amino)-2-methylpropyl)-6-(3-((1S,4R)-4-((3-(2-methoxypropan-2-yl)-[1,2,4]triazolo[4,3-a]pyridin-6-yl)oxy)-1,2,3,4-tetrahydronaphthalen-1-yl)ureido)pyrimidine-2-carboxamide], the IC50 lay in the range of 1 to 10 nM.

On to `COC(C)(C)c1nnc2ccc(O[C@@H]3CC[C@H](NC(=O)Nc4cc(C(C)(C)C)nc(C(=O)NCC(C)(C)N5CCN(C)CC5)n4)c4ccccc43)cn12` [Example 157, 4-(tert-butyl)-6-(3-((1S,4R)-4-((3-(2-methoxypropan-2-yl)-[1,2,4]triazolo[4,3-a]pyridin-6-yl)oxy)-1,2,3,4-tetrahydronaphthalen-1-yl)ureido)-N-(2-methyl-2-(4-methylpiperazin-1-yl)propyl)pyrimidine-2-carboxamide], for which the IC50 was 1 to 10 nM.

For `CN(C)C1(CNC(=O)c2nc(NC(=O)N[C@H]3CC[C@@H](Oc4ccc5nnc(C(C)(C)C)n5c4)c4ccccc43)cc(C(C)(C)C)n2)CCOCC1` [Example 160, 4-(tert-butyl)-6-(3-((1S,4R)-4-((3-(tert-butyl)-[1,2,4]triazolo[4,3-a]pyridm-6-yl)oxy)-1,2,3,4-tetrahydronaphthalen-1-yl)ureido)-N-((4-(dimethylamino)-tetrahydro-2H-pyran-4-yl)methyl)pyrimidine-2-carboxamide], the IC50 was 1 to 10 nM.

As for `CN(C)C1(CNC(=O)c2nc(NC(=O)N[C@H]3CC[C@@H](Oc4ccc5nnc(C(C)(C)C)n5c4)c4ccccc43)cc(C(C)(C)C)n2)CCCCC1` [Example 161, 4-(tert-butyl)-6-(3-((1S,4R)-4-((3-(tert-butyl)-[1,2,4]-triazolo[4,3-a]pyridin-6-yl)oxy)-1,2,3,4-tetrahydronaphthalen-1-yl)ureido)-N-((1-(dimethylamino)-cyclohexyl)methyl)pyrimidine-2-carboxamide], the IC50 was in the range of 1 to 10 nM.

In the case of `CN(C)C1(CNC(=O)c2nc(NC(=O)N[C@H]3CC[C@@H](Oc4ccc5nnc(C(C)(C)C)n5c4)c4ccccc43)cc(C(C)(C)C)n2)CCC1` [Example 162, 4-(tert-butyl)-6-(3-((1S,4R)-4-((3-(tert-butyl)-[1,2,4]triazolo[4,3-a]pyridin-6-yl)oxy)-1,2,3,4-tetrahydronaphthalen-1-yl)ureido)-N-((1-(dimethylamino)-cyclobutyl)methyl)pyrimidine-2-carboxamide], the IC50 lay within 1 to 10 nM.

For `CN(C)C1(CNC(=O)c2nc(NC(=O)N[C@H]3CC[C@@H](Oc4ccc5nnc(C(C)(C)C)n5c4)c4ccccc43)cc(C(C)(C)C)n2)CCCC1` [Example 163, 4-(tert-butyl)-6-(3-((1S,4R)-4-((3-(tert-butyl)-[1,2,4]-triazolo[4,3-a]pyridin-6-yl)oxy)-1,2,3,4-tetrahydronaphthalen-1-yl)ureido)-N-((1-(dimethylamino)-cyclopentyl)methyl)-pyrimidine-2-carboxamide], the IC50 was 1 to 10 nM.

Take `CN(CCNC(=O)c1nc(NC(=O)N[C@H]2CC[C@@H](Oc3ccc4nnc(C(C)(C)C)n4c3)c3ccccc32)cc(C(C)(C)C)n1)C1CC1` [Example 164, 4-(tert-butyl)-6-(3-((1S,4R)-4-((3-(tert-butyl)-[1,2,4]triazolo[4,3-a]pyridin-6-yl)oxy)-1,2,3,4-tetrahydronaphthalen-1-yl)ureido)-N-(2-(cyclopropyl(methyl)-amino)ethyl)pyrimidine-2-carboxamide]: the IC50 was 1 to 10 nM.

Regarding `CN(C)[C@H]1CCCC[C@@H]1NC(=O)c1nc(NC(=O)N[C@H]2CC[C@@H](Oc3ccc4nnc(C(C)(C)C)n4c3)c3ccccc32)cc(C(C)(C)C)n1` [Example 165, 4-(tert-butyl)-6-(3-((1S,4R)-4-((3-(tert-butyl)-[1,2,4]triazolo[4,3-a]pyridin-6-yl)oxy)-1,2,3,4-tetrahydronaphthalen-1-yl)ureido)-N-((1S,2S)-2-(dimethylamino)-cyclohexyl)pyrimidine-2-carboxamide], the IC50 was in the range of 1 to 10 nM.

In the case of `COC1CN(CCNC(=O)c2nc(NC(=O)N[C@H]3CC[C@@H](Oc4ccc5nnc(C(C)(C)OC)n5c4)c4ccccc43)cc(C(C)(C)C)n2)C1` [Example 167, 4-(tert-butyl)-N-(2-(3-methoxyazetidin-1-yl)ethyl)-6-(3-((1S,4R)-4-((3-(2-methoxypropan-2-yl)-[1,2,4]triazolo[4,3-a]pyridin-6-yl)oxy)-1,2,3,4-tetrahydronaphthalen-1-yl)ureido)pyrimidine-2-carboxamide], the IC50 is 1 to 10 nM.

`CCC(CC)(CNC(=O)c1nc(NC(=O)N[C@H]2CC[C@@H](Oc3ccc4nnc(C(C)(C)C)n4c3)c3ccccc32)cc(C(C)(C)C)n1)N(C)C` [Example 168, 4-(tert-butyl)-6-(3-((1S,4R)-4-((3-(tert-butyl)-[1,2,4]triazolo[4,3-a]pyridin-6-yl)oxy)-1,2,3,4-tetrahydronaphthalen-1-yl)ureido)-N-(2-(dimethylamino)-2-ethylbutyl)pyrimidine-2-carboxamide]: the IC50 is 1 to 10 nM.

As to `COC1CN(C(C)(C)CNC(=O)c2nc(NC(=O)N[C@H]3CC[C@@H](Oc4ccc5nnc(C(C)(C)C)n5c4)c4ccccc43)cc(C(C)(C)C)n2)C1` [Example 170, 4-(tert-butyl)-6-(3-((1S,4R)-4-((3-(tert-butyl)-[1,2,4]triazolo[4,3-a]pyridin-6-yl)oxy)-1,2,3,4-tetrahydronaphthalen-1-yl)ureido)-N-(2-(3-methoxyazetidin-1-yl)-2-methylpropyl)pyrimidine-2-carboxamide], the IC50 is 1 to 10 nM.

Take `COC1CN(C(C)(C)CNC(=O)c2nc(NC(=O)N[C@H]3CC[C@@H](Oc4ccc5nnc(C(C)(C)OC)n5c4)c4ccccc43)cc(C(C)(C)C)n2)C1` [Example 172, 4-(tert-butyl)-N-(2-(3-methoxyazetidin-1-yl)-2-rnethylpropyl)-6-(3-((1S,4R)-4-((3-(2-methoxypropan-2-yl)-[1,2,4]triazolo[4,3-a]pyridin-6-yl)oxy)-1,2,3,4-tetrahydronaphthalen-1-yl)ureido)pyrimidine-2-carboxamide]: the IC50 fell in the range of 1 to 10 nM.

The values above are taken from patent US10364245B2 (CHIESI FARMACEUTICI S.p.A., priority 2017, dated 2019).
